Experiments:
Assay in all cases: relative viability (nuclei count vs DMSO), 5 days (fraction); higher = more cells survive
AT-7519 + Tozasertib = compound: O=C(NC1CCNCC1)c1n[nH]cc1NC(=O)c1c(Cl)cccc1Cl [AT-7519] + Cc1cc(Nc2cc(N3CCN(C)CC3)nc(Sc3ccc(NC(=O)C4CC4)cc3)n2)n[nH]1 [Tozasertib] (partner 0.1 µM)
Procedure, shortened: (§1)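 Lung cancer cell lines in 1536-well plates were dosed by pin tool the day after seeding, either with one drug alone or with a fixed anchor-drug dose plus five library-drug doses (not always all listed) in √10 steps. After 5 days, cells were fixed and their nuclei stained in one step (final 0.05% Triton X-100, 1% formaldehyde, 1 ug/ml Hoechst), then counted on 4× images. Relative viability is the nuclei count in treated wells divided by that in vehicle wells. Values are medians of duplicate plates.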

[1] = compound: C1=CC2=C(C=C(C(=C2N=C1)O)N=NC3=CC4=C(C=C3)C=C(C=C4)S(=O)(=O)O)S(=O)(=O)O + O=C(CCCCCCC(=O)Nc1ccccc1)NO [Vorinostat] (partner 1 µM)
Procedure, shortened: as §1

AT-7519 + Olaparib = compound: O=C(NC1CCNCC1)c1n[nH]cc1NC(=O)c1c(Cl)cccc1Cl [AT-7519] + O=C(c1cc(Cc2n[nH]c(=O)c3ccccc23)ccc1F)N1CCN(C(=O)C2CC2)CC1 [Olaparib] (partner 8 µM)
Procedure, shortened: as §1

AT-7519 + Luminespib = compound: O=C(NC1CCNCC1)c1n[nH]cc1NC(=O)c1c(Cl)cccc1Cl [AT-7519] + CCNC(=O)c1noc(-c2cc(C(C)C)c(O)cc2O)c1-c1ccc(CN2CCOCC2)cc1 [Luminespib] (partner 0.01 µM)
Procedure, shortened: as §1

Cell Line	relative viability (AT-7519 + Tozasertib; first compound 0.01 µM)	relative viability (AT-7519 + Tozasertib; first compound 0.03162 µM)	relative viability (AT-7519 + Tozasertib; first compound 0.3162 µM)	relative viability (AT-7519 + Tozasertib; first compound 1 µM)	relative viability ([1]; first compound 0.08 µM)	relative viability ([1]; first compound 0.253 µM)	relative viability ([1]; first compound 0.8 µM)	relative viability ([1]; first compound 2.53 µM)	relative viability ([1]; first compound 8 µM)	relative viability (AT-7519 + Olaparib; first compound 0.01 µM)	relative viability (AT-7519 + Olaparib; first compound 0.03162 µM)	relative viability (AT-7519 + Olaparib; first compound 0.3162 µM)	relative viability (AT-7519 + Olaparib; first compound 1 µM)	relative viability (AT-7519 + Luminespib; first compound 0.01 µM)	relative viability (AT-7519 + Luminespib; first compound 0.03162 µM)	relative viability (AT-7519 + Luminespib; first compound 0.3162 µM)	relative viability (AT-7519 + Luminespib; first compound 1 µM)
NCI-H2009	0.751	0.72	0.703	0.515	0.691	0.742	0.759	0.748	0.53	0.663	0.697	0.61	0.707	1.03	1.03	1.02	0.881
NCI-H522	–	0.514	0.57	0.486	0.98	1.01	0.943	0.999	0.977	0.75	0.595	0.664	0.498	1.01	1.07	1.31	0.959
NCI-H2405	0.819	0.797	0.725	0.463	1.01	0.937	0.942	1.02	0.932	0.89	0.783	0.906	0.606	0.713	0.718	0.592	0.281
NCI-H1755	0.489	0.618	0.578	0.547	0.81	0.773	0.709	0.824	0.728	0.946	0.957	0.949	0.854	0.59	0.38	0.345	0.416
LOU-NH91	0.722	0.679	0.676	0.57	1	0.89	0.903	0.865	0.639	0.911	0.899	0.931	0.785	0.356	0.312	0.351	0.281
NCI-H3122	0.535	0.41	0.175	0.136	1.16	1.04	0.96	0.814	0.948	0.664	0.651	0.627	0.579	0.104	0.0901	0.112	0.0695
HCC-827	0.399	0.403	0.447	0.645	0.926	0.813	0.826	0.876	0.785	0.635	0.815	0.659	0.54	0.603	0.61	0.566	0.334
SK-LU-1	0.306	0.364	0.254	0.264	0.766	0.725	0.753	0.719	0.697	0.462	0.458	0.489	0.324	0.221	0.195	0.202	0.2
NCI-H1975	0.609	0.7	0.626	0.133	0.707	0.693	0.63	0.753	0.732	0.816	0.67	0.641	0.15	0.21	0.176	0.317	0.126
NCI-H1651	0.7	0.679	0.646	0.556	0.66	0.561	0.566	0.535	0.546	0.201	0.172	0.163	0.204	0.882	0.675	0.614	0.607
NCI-H441	0.788	0.565	0.573	0.343	0.903	0.684	0.845	0.805	0.837	0.524	0.559	0.446	0.204	0.424	0.367	0.313	0.242
LCLC-103H	0.489	0.408	0.511	0.432	0.797	0.784	0.827	0.785	0.859	0.763	0.805	0.834	0.833	1.06	0.953	0.955	0.867
LCLC-97TM1	0.24	0.208	0.27	0.124	0.593	0.657	0.632	0.575	0.715	0.284	0.264	0.355	0.294	0.976	0.692	0.788	0.285
NCI-H727	0.574	0.551	0.519	0.367	1.13	1.26	1.09	1.12	1.09	0.711	0.772	0.7	0.365	0.343	0.339	0.279	0.24
NCI-H1355	0.566	0.535	0.537	0.508	0.646	0.619	0.615	0.605	0.481	0.687	0.765	0.789	0.68	0.87	0.621	0.564	0.578
HOP-62	0.344	0.279	0.353	0.399	0.438	0.693	0.602	0.619	0.6	0.558	0.248	0.189	0.373	1.02	0.916	0.993	0.859
NCI-H2085	0.768	0.853	0.787	0.819	0.85	0.775	0.717	0.775	0.702	0.768	0.806	0.744	0.724	0.528	0.405	0.489	0.515
SW 900	0.613	0.484	0.639	0.375	0.624	0.399	0.604	0.611	0.426	1.06	0.8	0.622	0.371	0.171	0.183	0.173	0.179
